For assay [1], the target named is 5-hydroxytryptamine receptor 1E (Homo sapiens, UniProt P28566). The assay is described as follows: Compound was evaluated for the affinity at 5-hydroxytryptamine 1E receptor.
The target in assay [2] is T1, 5-hydroxytryptamine receptor 1A (Mus musculus, UniProt Q64264).
T1 sequence (Q64264 whole entry): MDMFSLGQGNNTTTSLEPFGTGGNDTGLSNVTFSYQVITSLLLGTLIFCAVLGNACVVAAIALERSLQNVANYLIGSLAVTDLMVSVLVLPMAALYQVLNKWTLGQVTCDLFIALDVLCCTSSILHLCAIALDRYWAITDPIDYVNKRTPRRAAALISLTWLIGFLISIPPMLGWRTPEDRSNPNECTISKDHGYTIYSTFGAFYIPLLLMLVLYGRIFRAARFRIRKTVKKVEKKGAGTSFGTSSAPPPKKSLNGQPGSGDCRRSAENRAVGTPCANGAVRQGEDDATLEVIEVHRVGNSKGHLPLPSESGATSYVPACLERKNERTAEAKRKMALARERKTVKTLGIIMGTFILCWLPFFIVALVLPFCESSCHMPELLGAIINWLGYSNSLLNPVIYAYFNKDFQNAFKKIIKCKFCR
The assay is described as follows: Compound was evaluated for the affinity at 5-hydroxytryptamine 1A receptor.

Assay [3] deals with T2, 5-hydroxytryptamine receptor 1D (Homo sapiens, UniProt P28221). Kind of assay: Displacement of [3H]5-HT from human 5-hydroxytryptamine 1D receptor expressed in CHO cells. In kind it is cell-based.
T2 sequence (P28221 whole entry): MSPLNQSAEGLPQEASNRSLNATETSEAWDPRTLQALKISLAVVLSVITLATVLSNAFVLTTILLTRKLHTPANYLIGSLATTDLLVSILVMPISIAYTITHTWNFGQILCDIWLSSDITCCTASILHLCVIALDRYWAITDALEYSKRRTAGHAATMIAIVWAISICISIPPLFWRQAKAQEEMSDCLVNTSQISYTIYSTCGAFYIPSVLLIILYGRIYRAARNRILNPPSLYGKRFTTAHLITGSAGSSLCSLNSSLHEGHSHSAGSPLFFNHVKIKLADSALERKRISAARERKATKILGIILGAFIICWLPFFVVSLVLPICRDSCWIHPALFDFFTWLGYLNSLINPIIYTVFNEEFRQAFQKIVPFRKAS
Assay [4] concerns the target T2, 5-hydroxytryptamine receptor 1D. Kind of assay: Stimulation of [35S]GTP-gamma-S, binding in CHO cells expressing 5-hydroxytryptamine 1D receptor. In kind it is functional, cell-based.
The target is the same in assay [5]. The assay is described as follows: Maximum stimulation of [35S]GTP-gamma-S, binding to 5-hydroxytryptamine 1D receptor relative to 5-HT. In kind it is functional.
For assay [6], the target named is T3, 5-hydroxytryptamine receptor 1B (Homo sapiens, UniProt P28222). Kind of assay: Displacement of [3H]5-HT from human 5-hydroxytryptamine 1B receptor expressed in CHO cells. It is filed as cell-based.
T3 sequence (P28222 whole entry): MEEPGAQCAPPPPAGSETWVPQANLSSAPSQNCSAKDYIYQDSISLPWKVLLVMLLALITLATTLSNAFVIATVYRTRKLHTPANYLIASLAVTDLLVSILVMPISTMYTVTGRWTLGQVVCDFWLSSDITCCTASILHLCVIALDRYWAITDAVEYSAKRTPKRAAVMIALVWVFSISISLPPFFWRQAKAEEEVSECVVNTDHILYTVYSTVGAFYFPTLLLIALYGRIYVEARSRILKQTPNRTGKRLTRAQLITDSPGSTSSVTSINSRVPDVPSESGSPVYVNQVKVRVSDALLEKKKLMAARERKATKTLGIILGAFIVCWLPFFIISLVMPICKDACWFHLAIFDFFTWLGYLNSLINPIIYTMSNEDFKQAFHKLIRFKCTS
The target of assay [7] is T4, 5-hydroxytryptamine receptor 1F (Homo sapiens, UniProt P30939).
T4 sequence (P30939 whole entry): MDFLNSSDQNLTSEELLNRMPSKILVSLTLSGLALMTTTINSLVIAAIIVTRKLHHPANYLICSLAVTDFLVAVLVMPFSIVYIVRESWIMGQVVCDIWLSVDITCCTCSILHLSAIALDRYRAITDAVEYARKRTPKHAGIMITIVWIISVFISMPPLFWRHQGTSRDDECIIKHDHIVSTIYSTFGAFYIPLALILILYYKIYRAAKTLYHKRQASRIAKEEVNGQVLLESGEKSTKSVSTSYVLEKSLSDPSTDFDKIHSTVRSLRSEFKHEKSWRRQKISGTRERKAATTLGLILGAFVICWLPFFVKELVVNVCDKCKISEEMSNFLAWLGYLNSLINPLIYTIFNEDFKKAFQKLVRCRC
The assay is described as follows: Compound was evaluated for the affinity at 5-hydroxytryptamine 1F receptor.

Assay [8] concerns the target 5-hydroxytryptamine receptor 2A (Homo sapiens, UniProt P28223). Kind of assay: Compound was evaluated for the affinity at 5-hydroxytryptamine 2A receptor.
Assay [9] addresses T2, 5-hydroxytryptamine receptor 1D. Kind of assay: Compound was evaluated for the stimulation of [35S]GTP-gamma-S, binding in CHO cells expressing the 5-hydroxytryptamine 1D receptor. It is filed as functional, cell-based.
Assay [10] deals with T5, 5-hydroxytryptamine receptor 3A (Homo sapiens, UniProt P46098).
T5 sequence (P46098 whole entry): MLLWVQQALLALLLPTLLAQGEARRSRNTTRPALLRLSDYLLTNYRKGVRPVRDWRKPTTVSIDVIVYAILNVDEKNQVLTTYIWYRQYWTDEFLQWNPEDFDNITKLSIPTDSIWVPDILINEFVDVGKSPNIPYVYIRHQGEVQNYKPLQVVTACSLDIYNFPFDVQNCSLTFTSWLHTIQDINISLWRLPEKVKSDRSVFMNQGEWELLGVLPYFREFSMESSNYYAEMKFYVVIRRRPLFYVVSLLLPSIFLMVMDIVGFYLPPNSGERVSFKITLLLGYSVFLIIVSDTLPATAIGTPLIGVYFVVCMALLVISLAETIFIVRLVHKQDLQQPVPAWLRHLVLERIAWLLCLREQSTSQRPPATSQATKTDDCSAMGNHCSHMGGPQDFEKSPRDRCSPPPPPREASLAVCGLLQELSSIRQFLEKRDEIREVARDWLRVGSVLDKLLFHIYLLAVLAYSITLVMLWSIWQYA
The assay is described as follows: Compound was evaluated for the affinity at 5-hydroxytryptamine 3 receptor.

For assay [11], the target named is T3, 5-hydroxytryptamine receptor 1B. The assay is described as follows: Compound was evaluated for the affinity at 5-hydroxytryptamine 1B receptor.
Assay [12] has as its target T6, 5-hydroxytryptamine receptor 2C (Homo sapiens, UniProt P28335).
T6 sequence (P28335 whole entry): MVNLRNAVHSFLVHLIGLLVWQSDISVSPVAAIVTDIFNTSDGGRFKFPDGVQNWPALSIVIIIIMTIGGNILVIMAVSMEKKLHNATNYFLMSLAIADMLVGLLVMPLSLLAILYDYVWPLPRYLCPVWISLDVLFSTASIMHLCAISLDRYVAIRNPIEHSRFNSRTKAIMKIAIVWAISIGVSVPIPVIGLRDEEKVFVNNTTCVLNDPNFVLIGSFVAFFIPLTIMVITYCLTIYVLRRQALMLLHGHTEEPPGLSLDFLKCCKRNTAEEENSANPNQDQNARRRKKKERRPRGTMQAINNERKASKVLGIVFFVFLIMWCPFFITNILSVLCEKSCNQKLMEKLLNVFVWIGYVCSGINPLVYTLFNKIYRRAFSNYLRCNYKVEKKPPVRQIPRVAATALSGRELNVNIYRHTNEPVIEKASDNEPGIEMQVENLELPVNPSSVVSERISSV
Kind of assay: Compound was evaluated for the affinity at 5-hydroxytryptamine 2C receptor.

The target in assay [13] is T2, 5-hydroxytryptamine receptor 1D. Kind of assay: Compound was evaluated for the affinity at 5-hydroxytryptamine 1D receptor.

5-hydroxytryptamine receptor 1E, sequence (P28566 whole entry): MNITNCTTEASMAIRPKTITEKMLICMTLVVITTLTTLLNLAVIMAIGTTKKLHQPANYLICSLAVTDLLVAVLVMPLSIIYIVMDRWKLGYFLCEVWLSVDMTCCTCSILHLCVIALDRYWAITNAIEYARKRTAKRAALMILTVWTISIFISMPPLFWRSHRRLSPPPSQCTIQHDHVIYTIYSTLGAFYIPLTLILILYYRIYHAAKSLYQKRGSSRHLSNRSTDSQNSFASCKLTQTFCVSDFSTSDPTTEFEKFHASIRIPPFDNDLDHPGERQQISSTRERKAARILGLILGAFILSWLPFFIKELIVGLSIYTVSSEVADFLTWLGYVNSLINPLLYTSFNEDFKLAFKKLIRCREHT
5-hydroxytryptamine receptor 2A, sequence (P28223 whole entry): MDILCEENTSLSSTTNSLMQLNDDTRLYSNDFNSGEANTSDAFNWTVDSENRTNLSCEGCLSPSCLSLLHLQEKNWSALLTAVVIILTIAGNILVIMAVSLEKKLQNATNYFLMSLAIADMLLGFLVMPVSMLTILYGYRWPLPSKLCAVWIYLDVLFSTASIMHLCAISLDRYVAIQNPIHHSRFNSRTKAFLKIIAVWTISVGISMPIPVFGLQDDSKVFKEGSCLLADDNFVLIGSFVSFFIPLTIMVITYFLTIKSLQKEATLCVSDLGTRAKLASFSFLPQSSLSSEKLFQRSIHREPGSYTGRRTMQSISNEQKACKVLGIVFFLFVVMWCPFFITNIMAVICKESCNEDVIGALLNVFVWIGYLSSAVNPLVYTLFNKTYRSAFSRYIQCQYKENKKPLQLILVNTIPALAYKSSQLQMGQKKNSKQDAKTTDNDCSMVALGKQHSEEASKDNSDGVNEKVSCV

As for `CNS(=O)(=O)Cc1ccc2[nH]cc(CCN(C)C)c2c1`, the IC50 in assay [1] came to 2400 nM; in [2], 450 nM.

Turning to `CC(=O)Nc1cccc(CCN2CCN(CCCc3c[nH]c4ccc(-n5cnnc5)cc34)CC2)c1`, the results for the IC50 in [3] and in assay [6] were 1.8 nM and 170 nM, respectively. Also, the response in assay [4] was half-maximal at 1.6 nM (EC50). The Efficacy in [5] was 96%.

As to `Fc1cccc(CCN2CCN(CCCc3c[nH]c4ccc(-n5cnnc5)cc34)CC2)c1`, the IC50 in [7] is 3800 nM; in assay [8], 370 nM; in [3], 0.6 nM; in assay [10], greater than 10000 nM; in [11], 75 nM; in [1], greater than 10000 nM. The IC50 in assay [2] came out at 55 nM; in [12] it was 9000 nM; in assay [13], 0.6 nM; in assay [6], 75 nM. In assay [9], this molecule had a half-maximal effective concentration (EC50) of 1.2 nM.

`CN1CCN(CCCc2c[nH]c3ccc(-n4cnnc4)cc23)CC1`: the IC50 is 35 nM in assay [3] and 430 nM in assay [6]. For the same molecule, the EC50 in assay [4] stood at 53 nM. In assay [5], this molecule registered an Efficacy of 104%.

Consider `Fc1ccccc1CCN1CCN(CCCc2c[nH]c3ccc(-n4cnnc4)cc23)CC1`, for which the IC50 was determined as 0.6 nM in [3] and 100 nM in assay [6]. Moreover, the response in assay [4] was half-maximal at 1.5 nM (EC50). In [5], this molecule displayed an Efficacy of 80%.

On to `CC(=O)Nc1ccc(CCN2CCN(CCCc3c[nH]c4ccc(-n5cnnc5)cc34)CC2)cc1`, for which the IC50 in assay [3] came to 1.3 nM; in assay [6], 251 nM. Besides, in assay [4], the EC50 amounted to 1.9 nM. In [5], this molecule came in with an Efficacy of 85%.

For the molecule `Fc1ccc(CCN2CCN(CCCc3c[nH]c4ccc(-n5cnnc5)cc34)CC2)cc1`, the results for the IC50 in assay [3] and in assay [6] were 0.8 nM and 120 nM, respectively. Also, the response in [4] was half-maximal at 1.5 nM (EC50). In [5], this molecule showed an Efficacy of 81%.

On to `Fc1ccc(CCN2CCN(CCCc3c[nH]c4ccc(-n5cnnc5)cc34)CC2)cc1F`, for which the IC50 came out at 1 nM in assay [3] and 98 nM in assay [6]. Also, in [4], a half-maximal response (EC50) required 1.9 nM. In addition, in [5], the Efficacy is 86%.

Regarding `c1ccc(CCN2CCN(CCCc3c[nH]c4ccc(-n5cnnc5)cc34)CC2)cc1`, the IC50 in assay [3] worked out at 1.4 nM; in assay [6] it was 170 nM. In assay [4], the midpoint of the response, the EC50, lay at 0.9 nM. The molecule also gave an Efficacy in assay [5] of 65%.

`c1cc2[nH]cc(CCN3CCCC3)c2cc1-n1cnnc1` registered an Efficacy in assay [5] of 120%.

Take `Fc1cc(F)cc(CCN2CCN(CCCc3c[nH]c4ccc(-n5cnnc5)cc34)CC2)c1`: the IC50 in assay [3] stood at 0.7 nM; in assay [6], 47 nM. In addition, in assay [4], the EC50 was 0.6 nM. In addition, the Efficacy in assay [5] was 86%.

Consider `CN1CCN(CCc2c[nH]c3ccc(-n4cnnc4)cc23)CC1`, for which the IC50 in assay [3] came to 140 nM; in [6], 310 nM. In [4], this molecule gave a concentration for a half-maximal effect (EC50) of 80 nM. The Efficacy in assay [5] was found to be 63%.

On to `c1ccc(CN2CCN(CCCc3c[nH]c4ccc(-n5cnnc5)cc34)CC2)cc1`, for which the figures for the IC50 in assay [3] and in assay [6] were 0.2 nM and 8.1 nM, respectively. The EC50 in assay [4] came to 0.1 nM. In addition, the Efficacy in assay [5] stood at 56%.

These data come from ChEMBL document CHEMBL1130196, “Selective, orally active 5-HT1D receptor agonists as potential antimigraine agents” (J Med Chem, 1997).
